According to article PMC10943645 (Current Research in Toxicology, 2024):

Columns and labels:
DNA = assay: Identification of B; assay type: in vivo, PIRC rats; conditions: colon and liver tissues
Tissue disposition of B = assay type: in vivo, PIRC rats; conditions: for proportion of reactive metabolite among B(a)P metabolite concentrations: colon sample, 50 µg B(a)P/kg bw (Fig. 5D)
SULT1A1 [1] = assay: Western blot of SULT1A1 protein in liver; assay type: in vivo, PIRC rats
GST [2] = assay: Western blot of GST protein in liver; assay type: in vivo, PIRC rats
SULT1A1 [3] = assay: Western blot of SULT1A1 protein in colon; assay type: in vivo, PIRC rats
GST [4] = assay: Western blot of GST protein in colon; assay type: in vivo, PIRC rats; conditions: 25 µg B(a)P/kg bw + RD, among all the groups
malondialdehyde (MDA) [5] = assay: Lipid peroxidation; assay type: in vivo, PIRC rats; conditions: B(a)P + WD
malondialdehyde (MDA) [6] = assay: Lipid peroxidation; assay type: in vivo, PIRC rats; conditions: among the treatment groups, except in the case of 100 µg/kg
Caco-2 cells = conditions: Western diet; ref Faria et al. (2020); cited from earlier work

For `Oc1ccc2ccc3c4ccccc4cc4ccc1c2c43` [3-OH-B(a)P], which “contribution of B(a)P metabolite to DNA adduct formation” value (shortened to “contribution of B(a)P metabolite”) (DNA) is on record?
Its value is “not found to contribute to adduct formation”.

With `Oc1ccc2cc3ccc4cccc5ccc(c2c1)c3c45` [9-OH–B(a)P] as the compound, how does the “contribution of B(a)P metabolite” value (DNA) read?
The value was “not found to contribute to adduct formation”.

For `c1ccc2c(c1)cc1ccc3cccc4ccc2c1c34` [B(a)P, Benzo(a)pyrene], which “B(a)P metabolite concentrations versus dose” value (Tissue disposition of B; plasma, liver, colon, 25, 50, 100 µg B(a)P/kg bw) is on record?
The value was “dose-dependent”.

What about the “SULT1A1 protein expression in liver, WD compared to RD” value (SULT1A1 [1]; 25 µg B(a)P/kg bw + WD vs RD) of the same compound?
The value was “increased expression”.

What about the “SULT1A1 protein expression in liver, RD or WD” value (SULT1A1 [1]; 50 and 100 µg B(a)P/kg bw + RD or WD) of the same compound?
Its value is “no difference”.

What about the “GST protein expression in liver, RD or WD” value (GST [2]; 100 µg B(a)P/kg bw, RD or WD) of the same compound?
The value was “Very little difference”.

What about the “GST protein expression in liver, WD compared to counterparts” value (GST [2]; 25 and 50 µg B(a)P/kg bw + WD) of the same compound?
The value was “significant increase”.

And the “SULT1A1 protein expression in colon” value (SULT1A1 [3]; 25 µg B(a)P/kg bw + RD and WD)?
The value was “negligible”.

What about the “SULT1A1 protein expression in colon” value (SULT1A1 [3]; 50 µg B(a)P/kg bw, both diets) of the same compound?
Its value is “increased”.

And the “SULT1A1 protein expression in colon, WD compared to RD” value (SULT1A1 [3]; 100 µg B(a)P/kg bw + WD vs RD counterpart)?
Its value is “significantly increased”.

And the “GST protein expression in colon” value (GST [4])?
Its value is “largest increase”.

And the “MDA production in colon” value (malondialdehyde (MDA) [5])?
The value was “increased”.

What about the “oxidative stress (MDA) in serum” value (malondialdehyde (MDA) [6]) of the same compound?
Its value is “no difference”.

What about the “bioaccessibility of B(a)P with WD” value (Caco-2 cells) of the same compound?
Its value is “higher bioaccessibility”.

What does the source list for `O=C1C=Cc2ccc3c4c(ccc1c24)C(=O)c1ccccc1-3` [B(a)P-3,6-dione]?
contribution of B(a)P metabolite to DNA adduct formation (DNA): not found to contribute to adduct formation; proportion of reactive metabolite among B(a)P metabolite concentrations (Tissue disposition of B): high

Which results are given for `O=c1c2ccc3cccc4c(=O)cc(c5ccccc15)-c2c34` [B(a)P-6,12-dione]?
contribution of B(a)P metabolite to DNA adduct formation (DNA): not found to contribute to adduct formation; proportion of reactive metabolite among B(a)P metabolite concentrations (Tissue disposition of B): high

For `O[C@@H]1[C@@H]2O[C@@H]2c2c(cc3ccc4cccc5ccc2c3c45)[C@H]1O` [BPDE, 7β,8α-dihydroxy-9α,10α-epoxy-7,8,9,10-tetrahydrobenzo[a]pyrene], which “contribution of B(a)P metabolite” value (DNA) is on record?
The value was “major adducts”.
